# Experimental data published in patent US5707821A, “Identification of phospholipase A2 inhibitors in Aβ peptide-mediated neurodegenerative disease” (priority 1995, dated 1998).
# pIC50: −log10 of the molar value. Read-outs that look alike come from different tables or passages of the source.
# Assays:
# [1] = tested on: IL-1β release by cultured human cortical microglia; assay: IL-1β release (ELISA) from Aβ1-40-stimulated human microglia; type: cell-based; conditions: 50 μM Aβ1-40, 1 day; compound 0, 5, 10, 20 μM; FIG. 2
# Description: (§1) Cultures of human cortical or hippocampal astrocytes and microglia were prepared using a modification of the procedure described for cortical neurons. Cortical tissue from fetuses of 16 to 20 weeks of gestation was washed 3 times in Ca^2+ /Mg^2+ free Hanks balanced salt solution (CMF HBSS) and then dissociated by repeated pipetting. The solution was brought to a final volume of 80 ml CMF HBSS for approximately 10 ml of tissue. DNase (Sigma) was added to a final concentration of 0.05 mg/ml. 20 ml of the solution was passed through one 100 μm nylon cell strained (Falcon). The cells were then centrifuged for 5 minutes at 200×G in an IEC Clinical Centrifuge and resuspended in a trypsin/EDTA solution (0.05% trypsin+0.53 mM EDTA in HBSS; Gibco) and incubated for 20 minutes at 37°C. (10 ml of trypsin was added per 2-3 ml of tissue). The trypsin was then inactivated by adding (MEM/FBS): Modified Eagle's Medium (MEM) containing 1% glucose, 1 mM sodium pyruvate, 1 mM glutamine, and supplemented with 10% fetal bovine serum (JRH). After adding a final concentration of 0.05 mg/ml DNase the cells were resuspended and then pelleted by centrifugation and resuspended in MEM/FBS. 1.6×10^8 cells were seeded in a T-150 tissue culture flask coated with polyethyleneimine (PEI). (10% PEI (Sigma) was diluted 1:10 in H2 O, filtered through a […] unit and then diluted into 150 mM sodium borate pH 8.5 at 1:100. The flasks were coated overnight at room temperature, washed two times in PBS and coated with 20 ml/flask of MEM/FBS at 37° C. for at least one hour prior to plating cells.) Cultures were maintained in a H2 O-saturated incubator with an atmosphere of 95% air/5% CO2 at 37° C. The culture medium was changed one and four days after plating and the cultures were then left undisturbed for at least one week. After approximately two weeks in vitro, the flasks were gently shaken and floating microglia were collected and centrifuged for 5 minutes at 200×G in an IEC Clinical Centrifuge. The microglia were reseeded in 96 well tissue culture plates at a density of 5,000-40,000 cells/well in 125 μl in MEM/FBS. Astrocyte cultures were prepared by multiple passaging of the established mixed brain cell cultures. Each T-150 was incubated for 3-4 minutes at 37°C. with a trypsin/EDTA solution (see above). The trypsin was then inactivated by adding MEM/FBS. The cells were triturated and then pelleted by centrifugation and resuspended in MEM/FBS. The cells from one T-150 were seeded at a 1:30 to 1:5 dilution in T-150's not coated. Just prior to confluency the cells were repassaged by trypsinization as described above. This process was repeated until the cultures were >98% pure astrocytes.
# (§2) Cultured microglial cells were treated with 50 μM of Aβ1-40 or vehicle only (Control). The levels of IL-1β, IL-6, and TNF-α released into the culture medium were determined by ELISA assay (R&D Systems) according to manufacturer's instructions.
# (§3) The effect of two benzenesulfonamide inhibitors of PLA2 (European Patent Application 468 054) were examined on the activation of microglial cells by Aβ1-40 as in Example 1.
# (§4) The effects of the benzenesulfonamide PLA2 inhibitor AN20606 and the selective cytosolic PLA2 inhibitor arachidonyl trifluoromethyl ketone (AN20579) were examined in cultured human cortical microglia for their selectivity for inhibiting microglia activation mediated by amyloid-βpeptide and lipopolysaccharides (LPS). LPS are a major constituent of the cell wall of gama-negative bacteria and are extensively used for generating inflammatory responses in cultured cells and in vivo.
# human cortical neurons [2] = assay: Aβ neurotoxicity in human cortical neurons (alamarBlue), 2 h pretreatment with inhibitor; type: cell-based; conditions: 50 μM Aβ1-40, compound 390 nM to 100 μM, 2 h pretreatment and re-added with Aβ, 3 days, n=3; for Emax / pIC50: Homo sapiens, Cortical neurone; for Emax: 72 h, read-out: Max Inh; for pIC50: ND = not detected at the concentration range used, read-out: IC50 (dose that inhibited Aβ-mediated neurotoxicity by 50%)
# Description: (§5) Cultures of human cortical or hippocampal neurons were prepared using a modification of the procedure described in P. Seubert et al. (1992), Nature 359:325-327. Cortical or hippocampal tissue was dissociated by incubation in a trypsin/EDTA solution (0.05% trypsin +0.53 mM EDTA in HBSS; Gibco) for 20 minutes at 37° C. The trypsin was then inactivated by resuspending the cells in serum-containing medium (MEM/FBS): Modified Eagle's Medium (MEM) containing 1% glucose, 1 mM sodium pyruvate, 1 mM glutamine, and supplemented with 10% fetal bovine serum (Gibco). Cells were then pelleted by centrifugation and resuspended in a chemically-defined medium (MEM/B27): MEM containing B27 supplement (Gibco) in place of FBS. Polyethyleneimine (PEI)-coated 6.4-mm (96-well) dishes were rinsed once with MEM/FBS, and then seeded at 0.75-1.25×10^5 cells per well in 0.1 ml MEM/B27. Cultures were maintained in a H2 O-saturated incubator with an atmosphere of 95% air/5% CO2 at 37° C. The culture medium was exchanged twice weekly.
# (§6) Amyloid-β (Aβ) stock solutions were prepared as 1 mM stocks in sterile ddH2 O immediately prior to addition to cultures. Rat cortical neurons were exposed to Aβ by removing the culture medium and replacing it with DMEM/N2 or DMEM/B27 containing Aβ1-40. Human cortical neurons were exposed to Aβ by removing the culture medium and replacing it with MEM, MEM/N2, or MEM/B27 containing Aβ1-40. Cultures were maintained for 2-4 days before neuronal survival was quantified using alamarBlue™.
# (§7) The alamarBlue™ assay incorporated a proprietary fluorometric/colorimetric metabolic indicator (Alamar Biosciences, Inc.). Viable cells convert alamarBlue™ from an oxidized (non-fluorescent, blue) form to a reduced (fluorescent, red) form. Assays were performed by replacing the culture media with a 10% alamarBlue™ solution in DMEM (rat cortical cultures) or MEM (human cortical cultures). Reduction of alamarBlue™ was determined spectrofluorometrically using a Millipore Cytofluor 2350 Scanner (excitation, […]; emission, 590 nm) and CytoCalc™ software (Millipore Corporation).
# The effect of pretreating human cortical neuron cultures with the benzenesulfonamide PLA2 inhibitors and arachidonyl trifluoromethyl ketone prior to exposure to a neurotoxic concentration of Aβ1-40 was determined.
# (§8) Human cortical neurons were treated with 50 μM Aβ1-40 and various inhibitors of PLA2. Compounds were added 2 hours prior to Aβ1-40 treatment at concentrations of 390 nM to 100 μM, and were then re-added at the time of Aβ1-40 treatment. Compounds were also added in an identical manner to neuronal cultures in the absence of Aβ1-40. Neuronal survival was determined after 3 days of treatment by alamarBlue®. IC50 is the dose of compound that inhibited Aβ-mediated neurotoxicity by 50%. […] Data represents the mean ± SD (n=3). ND, not detected at the concentration range used.
# human cortical neurons [3] = assay: Aβ neurotoxicity / survival of human cortical neurons (alamarBlue), compound added at time of Aβ1-40; type: cell-based
# Description: as §5, §6, §7
# The effect of the two benzenesulfonamide inhibitors of PLA2 in Example 2 were examined to determine the dose-dependence of their effect on neuronal survival in human cortical neuron cultures exposed to 0 μM, 25μM, or 50 μM of Aβ1-40 and varying doses of the benzenesulfonamide.
# (§9) Human cortical neurons were treated with 50 μM Aβ1-40 and various inhibitors of PLA2 or PLC. Compounds were added at the time of Aβ1-40 treatment at concentrations 390 nM to 100 μM. Compounds were also added to neuronal cultures in the absence of Aβ1-40. Neuronal survival was determined after 3 days of treatment by alamarBlue®. IC50 is the dose of compound that inhibited Aβ-mediated neurotoxicity by 50%. […] Data represents the mean ± SD (n=3). ND, not detected at the concentration range used.
# [4] = tested on: TNF-α release by cultured human cortical microglia; assay: TNF-α release (ELISA) from Aβ1-40-stimulated human microglia; type: cell-based; conditions: 50 μM Aβ1-40, 1 day; compound 0, 5, 10, 20 μM; FIG. 2
# Description: as §1, §2, §3, §4
# human cortical neurons [5] = assay: Compound toxicity to human cortical neurons in absence of Aβ1-40 (alamarBlue, 3 days); type: cell-based
# Description: as §5, §7, §9
# cPLA2 = conditions: Street et al. (1993); cited from earlier work
# Ca^+2 -independent PLA2 = conditions: Ackermann et al. (1995); cited from earlier work
# human cortical neurons [6] = assay: Compound toxicity to human cortical neurons in absence of Aβ1-40, added as in pretreatment protocol; type: cell-based; conditions: no Aβ1-40, 3 days; for TD10 (concentration giving 10% loss of neuronal survival): n=3
# Description: as §5, §7, §8
# [7] = Compound toxicity to human cortical neurons in absence of Aβ1-40 (alamarBlue, 3 days); type: cell-based; conditions: human, cortical neurons
# Description: as §5, §7, §9
# [8] = 50 μM Aβ1-40, compound 390 nM to 100 μM added at time of Aβ, 3 days, n=3
molecule,measurement,setting,value
CN(C(=O)/C=C/c1ccc(C#N)cc1)c1ccc(S(=O)(=O)NC2CCCCCC2)cc1 [AN20628],amount of IL-1β released into the medium (in words),[1],marked and dose-dependent decrease
same,Emax,human cortical neurons [2],87%
same,pIC50,human cortical neurons [2],5.40
same,neuronal survival in the presence of pathogenic Aβ peptide (in words),"human cortical neurons [3]; 0, 25 or 50 μM Aβ1-40, varying doses, FIG. 3, FIG. 4",dose-dependent increase in neuronal survival
same,Max Inh,human cortical neurons [3]; [8],82%
same,pIC50,"human cortical neurons [3]; Homo sapiens, Cortical neurone, 72 h, 50 μM Aβ1-40, compound 390 nM to 100 μM added at time of Aβ, 3 days, n=3, ND = not detected at the concentration range used, read-out: IC50 (dose that inhibited Aβ-mediated neurotoxicity by 50%)",5.10
same,amount of TNF-α released into the medium (in words),[4],marked and dose-dependent decrease
same,TD10 (concentration giving 10% loss of neuronal survival),"human cortical neurons [5]; human, 4320 min",73 µM
"O=C1O/C(=C/Br)CCC1c1cccc2ccccc12 (stereo not drawn) [Bromoenol Lactone, (e)-6-(bromomethylene)tetrahydro-3-(1-naphthalenyl)-2H-pyran-2-one]",Emax,human cortical neurons [2],41%
same,inhibition of cPLA2,cPLA2,capable of inhibiting
same,inhibition of Ca^+2 -independent PLA2 activity,Ca^+2 -independent PLA2,capable of inhibiting
"CCCCCCCCCCCC=CC(C)(C)C=CCCCC(=O)O [DEDA, 7,7,-dimethyl-5,8-eicosadienoic acid]",Emax,human cortical neurons [2],19%
C[C@H]1c2cccc(O)c2C(O)=C2C(=O)[C@]3(O)C(O)=C(C(N)=O)C(=O)[C@@H](N(C)C)[C@@H]3[C@@H](O)[C@@H]21 [Doxycycline],Emax,human cortical neurons [2],0%
CN(C)c1ccc(O)c2c1C[C@H]1C[C@H]3[C@H](N(C)C)C(O)=C(C(N)=O)C(=O)[C@@]3(O)C(O)=C1C2=O [Minocycline],Emax,human cortical neurons [2],69%
same,pIC50,human cortical neurons [2],4.15
same,TD10 (concentration giving 10% loss of neuronal survival),human cortical neurons [6],78 µM
CCN(CC)CCCC(C)Nc1c2ccc(Cl)cc2nc2ccc(OC)cc12 (stereo not drawn) [Quinacrine],Max Inh,human cortical neurons [3]; [8],2%
same,TD10 (concentration giving 10% loss of neuronal survival),"human cortical neurons [5]; human, 4320 min",6 µM
same,CC50 at 72 h,[7],9 µM
COc1ccc2c(c1)CC[C@@H]1[C@@H]2CC[C@]2(C)[C@@H](NCCCCCCN3C(=O)CCC3=O)CC[C@@H]12 [U73343],Max Inh,human cortical neurons [3]; [8],10%
same,TD10 (concentration giving 10% loss of neuronal survival),"human cortical neurons [5]; no Aβ1-40, 3 days, 390 nM to 100 μM, n=3",6 µM
same,CC50 at 72 h,"[7]; no Aβ1-40, 3 days, 390 nM to 100 μM, n=3, ND = not detected at the concentration range used, read-out: TD50 (concentration giving 50% loss of neuronal survival)",8 µM
CCCCCCCCCCCCCCCC(=O)C(F)(F)F [palmitoyl trifluoromethyl ketone],inhibition of cPLA2,cPLA2,capable of inhibiting
same,inhibition of Ca^+2 -independent PLA2 activity,Ca^+2 -independent PLA2,capable of inhibiting
Oleoyloxyethyl Phosphocholine,Max Inh,human cortical neurons [2],40%
same,TD10 (concentration giving 10% loss of neuronal survival),human cortical neurons [6],17 µM
same,CC50,"human cortical neurons [6]; n=3, ND = not detected at the concentration range used, read-out: TD50 (concentration giving 50% loss of neuronal survival)",29 µM
